Patent publication US20050008715A1, “Method for preventing fungal growth in plants” (priority 2003, published 2005)
Marks after values point to notes of the source that are not given here.

How the values were obtained:
Assay type in all cases: cell-based
Pythium ultimum = experiment: Mycelial growth from inoculum plugs in amended basal nutrient solution; conditions: 48 hours
Experimental: (§1) The efficacy of the garlic extract was tested against […] soil-borne fungi that cause root and lower stem rots of plants. The fungal pathogens included: Pythium aphanidermatum, Pythium irregular, Pythium ultimum, Phytophthora capsici, Phytophthora cinnamomi, Phytophthora nicotiana, Rhizoctonia solani, Fusarium oxysporum f.sp. lycopersici, Fusarium oxysporum f.sp. spinaciae, and Thielaviopsis basicola. All isolates used in this investigation were known to be pathogenic to various cultivated plant species.
(§2) All isolates of Pythium aphanidermatum, Pythium irregular, Pythum ultimum, Phytophthora capsici, Phytophthora cinnamomi, Phytophthora nicotiana, Rhizoctonia solani, Fusarium oxysporum f.sp. lycopersici, Fusarium oxysporum f.sp. spinaciae were grown on standard corn meal agar (CMA) for 8 to 9 days. Plugs from inoculum plates were taken using a #4 cork borer (5 mm diameter). Inoculum plugs were placed into 5-cm sterile plastic petri dishes containing 10 ml of a basal nutrient solution that consisted of 60% (v/v) clarified V-8 juice and sterile distilled water (SDW). Basal nutrient solutions were amended with the appropriate treatments. Treatments included SDW (non-treated control), a fungicidal agent appropriate to each species (metylaxyl for the Pythium and Phytophthora species, PCNB for Rhizoctonia, and Allegiance(r) for Fusarium), or 10%, 15%, 20%, 25%, or 30% (v/v) garlic extract. Cultures were placed into a growth chamber and maintained in the dark at 22(C(1(C. After 48 hours, mycelial growth (if any was visible) from culture plugs was measured.

Phytophthora nicotiana = experiment: as above; conditions: 48 hours
Experimental: as §1, §2

Pythium irregular = experiment: as above; conditions: 48 hours
Experimental: as §1, §2

Phytophthora capsici = experiment: as above; conditions: 48 hours
Experimental: as §1, §2

Pythium aphanidermatum = experiment: as above; conditions: 48 hours
Experimental: as §1, §2

Phytophthora cinnamomi = experiment: as above; conditions: 48 hours
Experimental: as §1, §2

[1] = tested on: Pythium and Phytophthora species; experiment: Mycelial growth in amended basal nutrient solution; conditions: basal nutrient solution amended with metalaxyl
Experimental: as §1
as §2, with “Treatments included SDW (non-treated control), a fungicidal agent appropriate to each species (metylaxyl for the Pythium and Phytophthora species, PCNB for Rhizoctonia, and Allegiance(r) for Fusarium), or 10%, 15%, 20%, 25%, or 30% (v/v) garlic extract.” left out

Rhizoctonia solani = experiment: Mycelial growth from inoculum plugs in amended basal nutrient solution; conditions: for Growth of Rhizoctonia on amended basal nutrient solution: PCNB
Experimental: as §1, §2

[2] = Fungicide control (Metylaxyl) in basal nutrient solution
[3] = Fungicide control (Metylaxyl), from edge of inoculum plug

| SMILES | Plates with visible mycelial growth (%) (Pythium ultimum; [2]) | Measured growth (cm) (Pythium ultimum; [3]) | Plates with visible mycelial growth (%) (Phytophthora nicotiana; [2]) | Measured growth (cm) (Phytophthora nicotiana; [3]) | Plates with visible mycelial growth (%) (Pythium irregular; [2]) | Measured growth (cm) (Pythium irregular; [3]) | Plates with visible mycelial growth (%) (Phytophthora capsici; [2]) | Measured growth (cm) (Phytophthora capsici; [3]) | Plates with visible mycelial growth (%) (Pythium aphanidermatum; [2]) | Measured growth (cm) (Pythium aphanidermatum; [3]) | Plates with visible mycelial growth (%) (Phytophthora cinnamomi; [2]) | Measured growth (cm) (Phytophthora cinnamomi; [3]) | Pythium and Phytophthora species that grew from the inoculum plugs [1] | Plates with visible mycelial growth (%) (Rhizoctonia solani; Fungicide control (PCNB) in basal nutrient solution, 48 hours) | Measured growth (cm) (Rhizoctonia solani; Fungicide control (PCNB), 48 hours, from edge of inoculum plug) | Growth of Rhizoctonia on amended basal nutrient solution (Rhizoctonia solani; first replication, inappropriate PCNB concentration) | Growth of Rhizoctonia on amended basal nutrient solution (Rhizoctonia solani; second replication) |
| --- | --- | --- | --- | --- | --- | --- | --- | --- | --- | --- | --- | --- | --- | --- | --- | --- | --- |
| COCC(=O)N(c1c(C)cccc1C)C(C)C(=O)OC (centres unmarked) [Metylaxyl] | 0% | 0 cm | 0% | 0 cm | 0% | 0 cm | 0% | 0 cm | 0% | 0 cm | 0% | 0 cm | none |  |  |  |  |
| O=[N+]([O-])c1c(Cl)c(Cl)c(Cl)c(Cl)c1Cl [PCNB] |  |  |  |  |  |  |  |  |  |  |  |  |  | 50^x % | 0.3 cm | limited amount of growth | did not grow |
